Assay results as given in patent US20230310428A1, “EGFR INHIBITOR AND PREPARATION METHOD AND USE THEREOF” (HONGYUN BIOTECH CO., LTD., priority 2020, published 2023).

Legend:
Test in all cases: Growth inhibitory activity of compounds on BaF3 cell lines stably transfected with kinase (MTS, 48 h)
Assay type in all cases: cell-based
[1] = biological target: T1, various mutants of kinase EGFR (BaF3 cell lines stably transfected with kinase) (Homo sapiens, UniProt P00533); details: BaF3 cells stably transfected with EGFR Δ19Del, read-out: IC50, growth inhibition, Δ19Del
T1 construct: other: BaF3 cells stably transfected with EGFR Δ19Del; MTS, 48 h; other: BaF3 cell line stably transfected with EGFR Δ19Del
How it was run: (§1)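 Transfected cells received compound (max 10 µM, 8 concentrations) for 48 h; MTS readout at 490 nm yielded IC50.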

[2] = biological target: T2, various mutants of kinase EGFR (BaF3 cell lines stably transfected with kinase) (Homo sapiens, UniProt P00533, C797S/L858R/T790M); details: BaF3 cells stably transfected with EGFR L858R/T790M/C797S, read-out: IC50, growth inhibition, L858R/T790M/C797S
T2 construct: expressed in transfected cells; host or cells: BaF3
How it was run: as §1

[3] = biological target: T3, various mutants of kinase EGFR (BaF3 cell lines stably transfected with kinase) (Homo sapiens, UniProt P00533, L858R); details: BaF3 cells stably transfected with EGFR L858R, read-out: IC50, growth inhibition, L858R
T3 construct: expressed in transfected cells; host or cells: BaF3
How it was run: as §1

[4] = biological target: T4, various mutants of kinase EGFR (BaF3 cell lines stably transfected with kinase) (Homo sapiens, UniProt P00533, L858R/T790M); details: BaF3 cells stably transfected with EGFR L858R/T790M, read-out: IC50, growth inhibition, L858R/T790M
T4 construct: expressed in transfected cells; host or cells: BaF3
How it was run: as §1

[5] = biological target: T5, various mutants of kinase EGFR (BaF3 cell lines stably transfected with kinase) (Homo sapiens, UniProt P00533, T790M/C797S, form not given); details: BaF3 cells stably transfected with EGFR Δ19Del/T790M/C797S, read-out: IC50, growth inhibition, Δ19Del/T790M/C797S
T5 construct: other: BaF3 cells stably transfected with EGFR Δ19Del/T790M/C797S; MTS, 48; other: BaF3 cell line stably transfected with EGFR Δ19Del/T790M/C7
How it was run: as §1

[6] = biological target: T6, various mutants of kinase EGFR (BaF3 cell lines stably transfected with kinase) (Homo sapiens, UniProt P00533, T790M, form not given); details: BaF3 cells stably transfected with EGFR Δ19Del/T790M, read-out: IC50, growth inhibition, Δ19Del/T790M
T6 construct: other: BaF3 cells stably transfected with EGFR Δ19Del/T790M; MTS, 48 h; other: BaF3 cell line stably transfected with EGFR Δ19Del/T790M; MTS, 48
How it was run: as §1

T6 sequence (P00533 with tags, fused parts or gaps DEL746-750/T790M, form open): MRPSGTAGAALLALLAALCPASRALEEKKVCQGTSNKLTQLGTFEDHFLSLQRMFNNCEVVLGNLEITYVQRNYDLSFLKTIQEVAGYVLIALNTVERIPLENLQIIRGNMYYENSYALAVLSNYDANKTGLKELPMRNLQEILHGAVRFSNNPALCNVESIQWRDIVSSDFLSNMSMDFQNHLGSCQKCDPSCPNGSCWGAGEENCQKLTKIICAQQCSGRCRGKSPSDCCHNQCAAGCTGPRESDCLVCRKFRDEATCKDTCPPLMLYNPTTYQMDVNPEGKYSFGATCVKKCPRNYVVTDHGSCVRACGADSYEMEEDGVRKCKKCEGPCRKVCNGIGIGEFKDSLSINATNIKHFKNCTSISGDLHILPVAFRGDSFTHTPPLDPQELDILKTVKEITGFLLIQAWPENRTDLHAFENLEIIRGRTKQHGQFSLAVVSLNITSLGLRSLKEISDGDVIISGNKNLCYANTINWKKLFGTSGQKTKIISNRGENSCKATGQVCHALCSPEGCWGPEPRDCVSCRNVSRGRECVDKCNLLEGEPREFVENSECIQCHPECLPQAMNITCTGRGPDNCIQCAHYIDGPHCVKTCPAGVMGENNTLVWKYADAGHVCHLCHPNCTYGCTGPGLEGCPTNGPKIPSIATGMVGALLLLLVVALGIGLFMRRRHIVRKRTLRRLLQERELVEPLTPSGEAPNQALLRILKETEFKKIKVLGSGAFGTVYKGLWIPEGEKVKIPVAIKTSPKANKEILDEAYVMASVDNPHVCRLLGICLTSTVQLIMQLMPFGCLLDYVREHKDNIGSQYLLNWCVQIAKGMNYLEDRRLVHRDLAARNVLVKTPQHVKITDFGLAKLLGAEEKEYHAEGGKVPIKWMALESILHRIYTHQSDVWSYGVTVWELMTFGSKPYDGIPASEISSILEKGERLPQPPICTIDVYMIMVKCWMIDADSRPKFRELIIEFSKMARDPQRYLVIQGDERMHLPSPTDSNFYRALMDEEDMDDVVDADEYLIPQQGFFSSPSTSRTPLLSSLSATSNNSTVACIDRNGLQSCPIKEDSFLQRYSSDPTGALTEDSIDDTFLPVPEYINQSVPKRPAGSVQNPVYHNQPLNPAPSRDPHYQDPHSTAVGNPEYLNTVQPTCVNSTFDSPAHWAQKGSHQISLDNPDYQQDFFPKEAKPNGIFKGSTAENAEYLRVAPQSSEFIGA
T3 sequence (P00533 25-1210 L858R): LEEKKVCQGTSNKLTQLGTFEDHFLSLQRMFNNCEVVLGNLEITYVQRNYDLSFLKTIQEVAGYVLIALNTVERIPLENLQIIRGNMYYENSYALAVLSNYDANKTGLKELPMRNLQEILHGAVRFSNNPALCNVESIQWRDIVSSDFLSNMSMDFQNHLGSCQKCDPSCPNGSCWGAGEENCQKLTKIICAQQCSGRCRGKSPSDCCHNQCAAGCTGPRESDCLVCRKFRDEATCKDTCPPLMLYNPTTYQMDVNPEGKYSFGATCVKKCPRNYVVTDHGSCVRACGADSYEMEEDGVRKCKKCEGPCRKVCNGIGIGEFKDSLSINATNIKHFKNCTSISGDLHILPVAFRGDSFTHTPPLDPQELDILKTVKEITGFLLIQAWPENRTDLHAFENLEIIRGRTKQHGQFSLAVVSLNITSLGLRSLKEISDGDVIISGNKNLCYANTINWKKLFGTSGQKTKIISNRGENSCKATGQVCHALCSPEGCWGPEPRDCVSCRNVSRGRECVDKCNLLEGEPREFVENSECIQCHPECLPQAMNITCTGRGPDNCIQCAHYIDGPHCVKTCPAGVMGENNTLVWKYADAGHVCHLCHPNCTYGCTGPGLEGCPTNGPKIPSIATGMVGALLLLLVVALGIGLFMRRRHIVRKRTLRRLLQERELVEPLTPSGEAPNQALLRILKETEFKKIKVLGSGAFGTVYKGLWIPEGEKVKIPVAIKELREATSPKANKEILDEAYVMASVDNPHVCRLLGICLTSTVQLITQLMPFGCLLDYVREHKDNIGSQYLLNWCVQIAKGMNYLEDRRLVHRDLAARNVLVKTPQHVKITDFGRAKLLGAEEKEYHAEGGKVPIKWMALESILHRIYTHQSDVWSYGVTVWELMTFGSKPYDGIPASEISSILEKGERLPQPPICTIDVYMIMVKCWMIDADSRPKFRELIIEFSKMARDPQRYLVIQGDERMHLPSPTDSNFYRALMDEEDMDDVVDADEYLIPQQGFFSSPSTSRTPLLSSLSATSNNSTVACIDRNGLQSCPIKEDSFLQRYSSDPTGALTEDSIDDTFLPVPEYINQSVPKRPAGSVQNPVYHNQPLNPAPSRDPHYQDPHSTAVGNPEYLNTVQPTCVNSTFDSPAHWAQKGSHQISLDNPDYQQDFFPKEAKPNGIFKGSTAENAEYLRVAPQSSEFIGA
T4 sequence (P00533 25-1210 T790M/L858R): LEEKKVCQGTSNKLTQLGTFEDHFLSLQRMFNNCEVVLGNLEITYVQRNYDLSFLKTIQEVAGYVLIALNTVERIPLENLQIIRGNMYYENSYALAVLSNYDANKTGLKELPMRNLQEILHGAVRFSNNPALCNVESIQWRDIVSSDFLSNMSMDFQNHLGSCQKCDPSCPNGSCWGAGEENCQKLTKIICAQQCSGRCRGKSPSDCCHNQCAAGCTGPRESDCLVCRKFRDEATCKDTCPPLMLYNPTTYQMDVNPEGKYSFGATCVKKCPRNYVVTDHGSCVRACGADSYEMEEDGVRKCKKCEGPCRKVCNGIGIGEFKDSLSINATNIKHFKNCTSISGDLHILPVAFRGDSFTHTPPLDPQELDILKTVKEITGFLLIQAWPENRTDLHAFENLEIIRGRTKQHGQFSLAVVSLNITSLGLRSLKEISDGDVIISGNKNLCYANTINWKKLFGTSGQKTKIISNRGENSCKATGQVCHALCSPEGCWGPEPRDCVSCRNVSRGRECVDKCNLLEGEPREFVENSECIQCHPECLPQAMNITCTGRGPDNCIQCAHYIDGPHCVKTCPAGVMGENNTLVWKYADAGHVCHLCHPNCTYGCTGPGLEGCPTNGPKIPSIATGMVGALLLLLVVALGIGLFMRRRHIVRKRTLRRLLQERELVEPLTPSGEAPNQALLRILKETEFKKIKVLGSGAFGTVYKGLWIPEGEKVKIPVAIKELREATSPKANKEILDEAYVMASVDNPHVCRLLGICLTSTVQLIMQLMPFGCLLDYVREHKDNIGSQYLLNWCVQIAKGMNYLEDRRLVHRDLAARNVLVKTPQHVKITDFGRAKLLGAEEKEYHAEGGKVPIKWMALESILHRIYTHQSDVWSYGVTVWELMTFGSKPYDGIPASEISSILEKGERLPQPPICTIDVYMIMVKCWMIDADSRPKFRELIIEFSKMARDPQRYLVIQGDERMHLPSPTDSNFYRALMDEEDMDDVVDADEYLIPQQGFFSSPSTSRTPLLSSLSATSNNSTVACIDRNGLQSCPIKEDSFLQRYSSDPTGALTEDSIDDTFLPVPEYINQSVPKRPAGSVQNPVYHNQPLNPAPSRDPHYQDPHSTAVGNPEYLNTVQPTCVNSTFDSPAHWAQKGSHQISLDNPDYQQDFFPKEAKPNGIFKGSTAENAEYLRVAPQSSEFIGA
T5 sequence (P00533 with tags, fused parts or gaps DEL746-750/T790M/C797S, form open): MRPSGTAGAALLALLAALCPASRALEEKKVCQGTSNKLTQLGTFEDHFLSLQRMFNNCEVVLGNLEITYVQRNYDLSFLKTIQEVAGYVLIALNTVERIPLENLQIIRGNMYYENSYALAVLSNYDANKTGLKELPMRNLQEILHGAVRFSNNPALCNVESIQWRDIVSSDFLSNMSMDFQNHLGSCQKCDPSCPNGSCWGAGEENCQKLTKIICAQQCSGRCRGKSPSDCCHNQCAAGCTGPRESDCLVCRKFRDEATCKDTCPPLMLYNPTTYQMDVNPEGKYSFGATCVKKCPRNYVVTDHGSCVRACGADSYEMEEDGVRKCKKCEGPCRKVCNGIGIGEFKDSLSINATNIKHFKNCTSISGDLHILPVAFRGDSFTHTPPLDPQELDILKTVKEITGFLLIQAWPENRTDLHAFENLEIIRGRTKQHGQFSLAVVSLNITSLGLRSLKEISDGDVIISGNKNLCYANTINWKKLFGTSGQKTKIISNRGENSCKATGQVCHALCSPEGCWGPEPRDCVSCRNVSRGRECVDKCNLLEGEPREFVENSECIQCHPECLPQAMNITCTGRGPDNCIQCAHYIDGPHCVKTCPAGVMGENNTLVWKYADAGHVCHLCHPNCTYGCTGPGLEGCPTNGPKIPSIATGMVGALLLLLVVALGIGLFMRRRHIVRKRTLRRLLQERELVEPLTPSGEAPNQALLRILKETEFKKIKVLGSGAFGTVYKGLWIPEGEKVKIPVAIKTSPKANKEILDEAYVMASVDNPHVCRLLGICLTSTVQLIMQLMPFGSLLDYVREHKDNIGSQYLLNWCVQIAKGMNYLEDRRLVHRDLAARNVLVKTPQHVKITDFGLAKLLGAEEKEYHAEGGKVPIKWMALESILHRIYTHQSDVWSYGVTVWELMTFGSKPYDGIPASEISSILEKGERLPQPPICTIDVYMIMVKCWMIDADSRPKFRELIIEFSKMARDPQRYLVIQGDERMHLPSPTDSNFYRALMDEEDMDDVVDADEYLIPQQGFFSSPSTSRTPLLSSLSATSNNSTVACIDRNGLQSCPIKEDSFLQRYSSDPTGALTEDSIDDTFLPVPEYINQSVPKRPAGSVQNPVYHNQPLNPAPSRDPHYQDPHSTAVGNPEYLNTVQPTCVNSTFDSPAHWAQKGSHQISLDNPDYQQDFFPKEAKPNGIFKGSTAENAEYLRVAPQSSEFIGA

| SMILES | IC50 [1] [nM] | IC50 [2] [nM] | IC50 [3] [nM] | IC50 [4] [nM] | IC50 [5] [nM] | IC50 [6] [nM] |
| --- | --- | --- | --- | --- | --- | --- |
| COc1nc(N2CCC(N3CCN(C)CC3)CC2)ccc1Nc1ncc(Cl)c(Nc2ccc3nccnc3c2N(C)S(C)(=O)=O)n1 [Compound I-164] | 500 to 2500 | 50 to 500 | 50 to 500 | 50 to 500 | 50 to 500 | 500 to 2500 |
| CN1CCN(C2CCN(c3ccc(Nc4ncc(Cl)c(Nc5ccc6nccnc6c5N(C)S(C)(=O)=O)n4)c(OC(F)(F)F)c3)CC2)CC1 [Compound I-166] | 50 to 500 | 50 to 500 | 50 to 500 | 50 to 500 | ≤ 50 | 50 to 500 |
| COc1cc(N2CCC(N3CCN(C)CC3)CC2)c(CC2CC2)cc1Nc1ncc(Cl)c(Nc2ccc3nccnc3c2N(C)S(C)(=O)=O)n1 [Compound I-167] | 50 to 500 | ≤ 50 | ≤ 50 | ≤ 50 | ≤ 50 | ≤ 50 |
| COc1cc(N2CCC(N3CCN(C)CC3)CC2)c(Cc2ccccc2)cc1Nc1ncc(Cl)c(Nc2ccc3nccnc3c2N(C)S(C)(=O)=O)n1 [Compound I-168] | 500 to 2500 | 500 to 2500 | 500 to 2500 | 500 to 2500 | 500 to 2500 | 50 to 500 |
| COc1cc(N2CCC(N(C)C)CC2)c(C)cc1Nc1ncc(Cl)c(Nc2ccc3nccnc3c2N(C)S(C)(=O)=O)n1 [Compound I-169] | ≤ 50 | ≤ 50 | ≤ 50 | ≤ 50 | ≤ 50 | ≤ 50 |
| CCc1cc(Nc2ncc(Cl)c(Nc3ccc4nccnc4c3N(C)S(C)(=O)=O)n2)c(OC)cc1N1CCC(N(C)C)CC1 [Compound I-170] | ≤ 50 | ≤ 50 | ≤ 50 | ≤ 50 | ≤ 50 | ≤ 50 |
| COc1cc(N2CCN(C)CC2)c(C)cc1Nc1ncc(Cl)c(Nc2ccc3nccnc3c2N(C)S(C)(=O)=O)n1 [Compound I-171] | 50 to 500 | ≤ 50 | ≤ 50 | ≤ 50 | ≤ 50 | ≤ 50 |
| CCc1cc(Nc2ncc(Cl)c(Nc3ccc4nccnc4c3N(C)S(C)(=O)=O)n2)c(OC)cc1N1CCN(C)CC1 [Compound I-172] | ≤ 50 | ≤ 50 | ≤ 50 | ≤ 50 | ≤ 50 | ≤ 50 |
| COc1cc(N2CCC(N(C)C)C2)c(C)cc1Nc1ncc(Cl)c(Nc2ccc3nccnc3c2N(C)S(C)(=O)=O)n1 (stereo not drawn) [Compound I-173] | ≤ 50 | ≤ 50 | ≤ 50 | ≤ 50 | ≤ 50 | ≤ 50 |
| CCc1cc(Nc2ncc(Cl)c(Nc3ccc4nccnc4c3N(C)S(C)(=O)=O)n2)c(OC)cc1N1CCC(N(C)C)C1 (stereo not drawn) [Compound I-174] | ≤ 50 | ≤ 50 | ≤ 50 | ≤ 50 | ≤ 50 | ≤ 50 |
| COc1nc(N2CCC(N3CCN(C)CC3)CC2)ccc1Nc1ncc(F)c(Nc2ccc3nccnc3c2N(C)S(C)(=O)=O)n1 [Compound I-175] | 500 to 2500 | 500 to 2500 | 500 to 2500 | 500 to 2500 | 50 to 500 | 500 to 2500 |
| CCc1cc(Nc2ncc(F)c(Nc3ccc4nccnc4c3N(C)S(C)(=O)=O)n2)c(OC)nc1N1CCC(N2CCN(C)CC2)CC1 [Compound I-177] | ≤ 50 | ≤ 50 | ≤ 50 | ≤ 50 | ≤ 50 | ≤ 50 |
| CN1CCN(C2CCN(c3ccc(Nc4ncc(F)c(Nc5ccc6nccnc6c5N(C)S(C)(=O)=O)n4)c(OC(F)(F)F)c3)CC2)CC1 [Compound I-178] | 50 to 500 | 500 to 2500 | 50 to 500 | 500 to 2500 | 50 to 500 | 500 to 2500 |
| CCc1cc(Nc2ncc(F)c(Nc3ccc4nccnc4c3N(C)S(C)(=O)=O)n2)c(OC(F)(F)F)cc1N1CCC(N2CCN(C)CC2)CC1 [Compound I-179] | 50 to 500 | 50 to 500 | 50 to 500 | 50 to 500 | ≤ 50 | 50 to 500 |
| C=Cc1cc(Nc2ncc(F)c(Nc3ccc4nccnc4c3N(C)S(C)(=O)=O)n2)c(OC(F)(F)F)cc1N1CCC(N2CCN(C)CC2)CC1 [Compound I-180] | ≤ 50 | 50 to 500 | ≤ 50 | ≤ 50 | ≤ 50 | 50 to 500 |
| COc1cc(N2CCC(N3CCN(C)CC3)CC2)c(CC2CC2)cc1Nc1ncc(F)c(Nc2ccc3nccnc3c2N(C)S(C)(=O)=O)n1 [Compound I-181] | ≤ 50 | 50 to 500 | ≤ 50 | ≤ 50 | ≤ 50 | 50 to 500 |
| COc1cc(N2CCC(N3CCN(C)CC3)CC2)c(Cc2ccccc2)cc1Nc1ncc(F)c(Nc2ccc3nccnc3c2N(C)S(C)(=O)=O)n1 [Compound I-182] | 500 to 2500 | 500 to 2500 | 500 to 2500 | 500 to 2500 | 500 to 2500 | 500 to 2500 |
| COc1cc(N2CCC(N(C)C)CC2)c(C)cc1Nc1ncc(F)c(Nc2ccc3nccnc3c2N(C)S(C)(=O)=O)n1 [Compound I-183] | ≤ 50 | ≤ 50 | ≤ 50 | ≤ 50 | ≤ 50 | 50 to 500 |
| CCc1cc(Nc2ncc(F)c(Nc3ccc4nccnc4c3N(C)S(C)(=O)=O)n2)c(OC)cc1N1CCC(N(C)C)CC1 [Compound I-184] | ≤ 50 | ≤ 50 | ≤ 50 | ≤ 50 | ≤ 50 | 50 to 500 |
| COc1cc(N2CCN(C)CC2)c(C)cc1Nc1ncc(F)c(Nc2ccc3nccnc3c2N(C)S(C)(=O)=O)n1 [Compound I-185] | 50 to 500 | 50 to 500 | ≤ 50 | 50 to 500 | ≤ 50 | 50 to 500 |
| CCc1cc(Nc2ncc(F)c(Nc3ccc4nccnc4c3N(C)S(C)(=O)=O)n2)c(OC)cc1N1CCN(C)CC1 [Compound I-186] | 50 to 500 | ≤ 50 | ≤ 50 | 50 to 500 | ≤ 50 | 50 to 500 |
| COc1cc(N2CCC(N(C)C)C2)c(C)cc1Nc1ncc(F)c(Nc2ccc3nccnc3c2N(C)S(C)(=O)=O)n1 (stereo not drawn) [Compound I-187] | ≤ 50 | 50 to 500 | 50 to 500 | 50 to 500 | 50 to 500 | 50 to 500 |
| CCc1cc(Nc2ncc(F)c(Nc3ccc4nccnc4c3N(C)S(C)(=O)=O)n2)c(OC)cc1N1CCC(N(C)C)C1 (stereo not drawn) [Compound I-188] | 50 to 500 | 50 to 500 | ≤ 50 | 50 to 500 | ≤ 50 | ≤ 50 |
| CCc1cc(Nc2ncc([N+](=O)[O-])c(Nc3ccc4nccnc4c3N(C)S(C)(=O)=O)n2)c(OC)nc1N1CCC(N2CCN(C)CC2)CC1 [Compound I-190] | 50 to 500 | 50 to 500 | 50 to 500 | ≤ 50 | ≤ 50 | ≤ 50 |
| COc1cc(N2CCC(N3CCN(C)CC3)CC2)c(CC2CC2)cc1Nc1ncc([N+](=O)[O-])c(Nc2ccc3nccnc3c2N(C)S(C)(=O)=O)n1 [Compound I-191] | 50 to 500 | 50 to 500 | 50 to 500 | 50 to 500 | ≤ 50 | 50 to 500 |
| COc1cc(N2CCC(N(C)C)CC2)c(C)cc1Nc1ncc([N+](=O)[O-])c(Nc2ccc3nccnc3c2N(C)S(C)(=O)=O)n1 [Compound I-192] | ≤ 50 | ≤ 50 | 50 to 500 | ≤ 50 | ≤ 50 | ≤ 50 |
| CCc1cc(Nc2ncc([N+](=O)[O-])c(Nc3ccc4nccnc4c3N(C)S(C)(=O)=O)n2)c(OC)cc1N1CCC(N(C)C)CC1 [Compound I-193] | ≤ 50 | ≤ 50 | ≤ 50 | ≤ 50 | ≤ 50 | ≤ 50 |
| COc1cc(N2CCN(C)CC2)c(C)cc1Nc1ncc([N+](=O)[O-])c(Nc2ccc3nccnc3c2N(C)S(C)(=O)=O)n1 [Compound I-194] | 50 to 500 | 50 to 500 | 50 to 500 | 50 to 500 | ≤ 50 | 50 to 500 |
